Test results reported in patent US8361970B2, “Growth factor binding molecules” (University of South Florida, priority 2000, dated 2013).
“And” between values parts separate entries of the source, which are not always exact repeats. Equal entries are not always repeated. Where two headings read alike, the source gives them in different places.

What was measured:
Type in all cases: cell-based
[1] = tested on: EGF-stimulated EGFR tyrosine phosphorylation and Erk1/Erk2 activation; test: EGF-stimulated EGFR tyrosine phosphorylation and Erk1/Erk2 activation in NIH 3T3 cells overexpressing EGFR; settings: GFB-111 at concentrations as high as 100 μM
Method: (§1) Starved NIII 3T3 cells (PDGF-BB and PDGF-AA), NIH 3T3 cells overexpressing either EGFR (EGF) or Flk-1 (VEGF) are pre-treated with the indicated concentrations of GFB-111 for 5 minutes before 10 minutes of stimulation with PDGF-BB (10 ng/ml), PDGF-AA (10 ng/ml), EGF (100 ng/ml) and VEGF (50 ng/ml). Cell lysates are run on SDS-PAGE gels, then transferred to nitrocellulose and Western blotted with anti-phosphotyrosine (4G 10) or anti-phosphorylated Erk1/Erk2 (New England Biolabs).

[2] = tested on: PDGF-stimulated PDGFR tyrosine phosphorylation; test: Inhibition of PDGF-stimulated PDGFR tyrosine phosphorylation in NIH 3T3 cells (anti-phosphotyrosine Western blot); settings: 5 min pretreatment, PDGF 10 ng/ml 10 min, read-out: (IC50) Inhibition PDGFR-Y-P
Method: Starved NIH 3T3 cells are pretreated with various growth factor binding agents (0-100 μM) for 5 min before stimulation with PDGF (10 ng/mL) for 10 min. The cells are then harvested and lysed, and the proteins from the lysates separated by SDS-PAGE and immunoblotted with an anti-phosphotyrosine antibody (4G10: Upstate Biotechnology, Lake Placid, N.Y.). The phosphotyrosine PDGF receptor bands are scanned, and the concentrations of growth factor binding molecules that inhibited the ability of PDGF to stimulate PDGFR tyrosine phosphorylation by 50% are determined.
as §1
A novel series of protein surface binding agents are prepared that bind PDGF and disrupt its signaling function. The molecules are composed of a central calix[4] arene scaffold to which is attached four peptide loop domains (FIG. 1). The peptide loop component is based on a cyclic hexapeptide in which two residues are replaced by a 3-aminomethylbenzoate dipeptide mimetic containing a 5-amino substituent for attachment to the scaffold. The resulting molecules (as shown in Table 1) contain a functionalized and variable surface approximately 500 Å^2 in area. Several peptide loop sequences are synthesized (Table 1) to provide molecular surfaces with negatively and positively charged as well as hydrophobic regions designed to bind to complementary areas on the target growth factor. To identify PDGF binding molecules from this library, a cell-based screening assay is developed with NIH 3T3 cells to detect molecules capable of blocking PDGF-BB-induced tyrosine autophosphorylation of the PDGF receptor. The ability of the identified molecules to bind PDGF-BB and inhibit interaction with its receptor is then confirmed biochemically. Starved NIH 3T3 cells are pretreated for 5 min with the synthetic molecules prior to stimulation with PDGF for 10 min. The effects of the molecules on PDGF-stimulated receptor tyrosine phosphorylation are determined by the antiphosphotyrosine Western blotting as described in Table 1. […] GFB-111 has four-fold symmetry containing 4 identical peptide loops with negative and hydrophobic residues, GlyAspGlyTyr (GDGY) (SEQ ID NO. 6), that are designed to be complementary to the PDGF surface involved in binding to PDGFR. The area of PDGF-BB that binds PDGFR is composed primarily of positive and hydrophobic residues.
Starved NIH 3T3 cells are pretreated with the various GFBs (0-100 μM) for 5 min. prior to stimulation with PDGF (10 ng/ml) for 10 min. The cells are then harvested lysed and the proteins from the lysates are separated by SDS-PAGE and immunoblotted with an anti-phosphotyrosine antibody (4G10, Upstate Biotechnology, Lake Placid, N.Y.). The phosphotyrosine PDGF receptor bands are scanned and the concentrations of GFBs that inhibit the ability of PDGF to stimulate PDGFR tyrosine phosphorylation by 50% are determined. Data for each compound is representative of at least two independent experiments. FIG. 1 illustrates the structure of growth factor binders. GFBs are synthesized as described by Park, H. D. et al., Protein surface recognition by synthetic receptors: A route to novel sub-micromolar inhibitors for chymotrypsin. J. Am. Chem. Soc. 121, 8-13 (1999); and Hamuro, Y. et al., A calixarene with four peptide loops: An antibody mimic for recognition of protein surfaces. Angew. Chemie Int. Ed. Engl. 36, 2680-2683 (1997), each herein incorporated by reference in its respective entirety.

[3] = tested on: IGF-1 stimulated MAP kinase activation; test: Inhibition of IGF-1 stimulated MAP kinase (p42/p44) activation in IGFR/3T3 cells; settings: 100 μM; IGFR/3T3, IGF-1 stimulated
Method: (§2) In other experiments, starved NIH 3T3 cells (PDGF-AA, PDGF-BB, aFGF, bFGF), NIH 3T3 cells overexpressing EGFR. IGF-1R or Flk-1 and the human breast carcinoma SkBr3 that overexpresses ErbB2 (HRGβ) are pretreated with GFB-111 (100 μM) for 5 min before 10 min stimulation with the indicated growth factors at the concentrations shown above and aFGF (10 ng/ml), bFGF (50 ng/ml), IGF-1 (50 ng/ml) and HRGβ (10 ng/ml). Cell lysates are then immunoblotted with anti-phospho Erk1/Erk2 as described above.
(§3) The ability of the GFB library to block the ability of IGF-1 to stimulate the IFG-1 R tyrosine phosphorylation and MAP kinase activation is evaluated using the cell assay described above with IGF-1R/3T3 cells as target cell. […] A preferred embodiment of the invention is a compound that binds to an insulin-like growth factor-1, of the general structure III, wherein R is n-butyl, n-propyl, or benzyl, and X1, X2, X3, and X4 optionally comprise identical cyclic peptide loops of the general structure II, and wherein R1, R2, R3, and R4 are each amino acid side chains that define a tetrapeptide sequence, wherein said tetrapeptide is covalently attached at the amino and carboxy termini of said tetrapeptide to a 3-aminomethyl-5-aminobenzamide linking group.

[4] = tested on: IGF-1 stimulated IGF-1R tyrosine phosphorylation; test: Inhibition of IGF-1 stimulated IGFR tyrosine phosphorylation in IGFR/3T3 cells; settings: for % Inhibition at 100 μM IGF1R-Y-P: IGFR/3T3, IGF-1 stimulated
Method: as §3

[5] = tested on: PDGF-stimulated Erk1/Erk2 activation; test: Inhibition of PDGF-stimulated activation of MAPK Erk1/Erk2 (p44/p42) in NIH 3T3 cells; settings: NIH 3T3, PDGF stimulated
Method: as §1, §2

[6] = tested on: VEGF-stimulated Flk-1 tyrosine phosphorylation; test: Inhibition of VEGF-stimulated Flk-1 tyrosine phosphorylation in Flk-1/3T3 cells; settings: Flk-1/3T3, VEGF stimulated; read-out: (IC50) Inhibition Flk-1-Y-P
Method: as §1
(§4) In order to identify molecules that would bind vascular endothelial growth factor (VEGF), Flk-1/3T3 cell-based assay is used that relies on VEGF-stimulation of its receptor, Flk-1, tyrosine phosphorylation and subsequent MAP-kinase activation. The assay used herein identical to that used for PDGF, except that NIH 3T3 cells that overexpress Flk-1 are used. GFB-116, which has four identical loops with the sequence GKGK (SEQ ID NO. 10) is shown to be very potent and selective toward blocking the ability of VEGF to stimulate Flk-1 tyrosine phosphorylation and subsequent MAP-kinase activation as measured by phospho erk-1 and erk-2 also referred to in the Table as p42 and p44 (Table 4A). A preferred embodiment of the invention is a compound that binds to a vascular endothelial growth factor, of the general structure III (above) in which R is n-butyl, n-propyl, or benzyl, and X comprise covalently attached identical cyclic peptide loops wherein R1, R2, R3, and R4 are each amino acid side chains, as broadly defined above, that define a tetrapeptide sequence, wherein said tetrapeptide is covalently attached at the amino and carboxy termini of said tetrapeptide to 3-aminomethyl-5-aminobenzamide linking group, and wherein said tetrapeptide sequence is GKGK (SEQ ID NO. 10), GDGY (SEQ ID NO. 6), or functionally related derivatives thereof.

[7] = tested on: VEGF-stimulated MAP kinase activation; test: Inhibition of VEGF-stimulated MAP kinase (p42/p44, Erk2/Erk1) activation in Flk-1/3T3 cells; settings: Flk-1/3T3, VEGF stimulated
Method: as §1, §2, §4

[8] = tested on: aFGF-stimulated MAP kinase activation of p42 and p44; test: Inhibition of aFGF stimulation of p42/p44 MAP kinase in NIH 3T3 cells; settings: NIH 3T3
Method: as §2
The ability of growth factor binding agents in the library of growth factor binding agents to block an aFGF signal is measured by aFGF-stimulation of MAP kinase activation of p42 and p44 essentially as described above for VEGF. NIH 3T3 cells are used as the target cell. […] A preferred embodiment of the invention is a compound that binds to acidic fibroblast growth factor, of the general structure III, in which R is n-butyl, n-propyl, or benzyl, and X1, X2, X3, and X4 optionally comprise covalently attached cyclic peptide loops of the general structure II, wherein R1, R2, R3, and R4 are each amino acid side chains that define a tetrapeptide sequence, wherein said tetrapeptide is covalently attached at the amino and carboxy termini of said tetrapeptide to a 3-aminomethyl-5-aminobenzamide linking group, and wherein said tetrapeptide sequence is as given, for example, in Table 5.

[9] = head p42/Erk2 (p42 for GFB-132 to 137), read-out: (IC50) Inhibition p42/Erk2
[10] = read-out: (IC50) Inhibition p42
[11] = read-out: (IC50) Inhibition p44

Row | IC50 [2] [µM] | IC50 [5, 9] [µM] | IC50 [6] [µM] | IC50 [7, 10] [µM] | IC50 [7, 11] [µM] | IC50 [5, 11] [µM] | Molecule | Effect on EGF-stimulated EGFR tyrosine phosphorylation and Erk1/Erk2 activation [1] | % Inhibition at 100 μM p42 [3] | % Inhibition at 100 μM p44 [3] | % Inhibition at 100 μM IGF1R-Y-P [4] | Block of aFGF-stimulation of MAP kinase activation of p42 and p44 [8] | Blocking IGF-1 action ([4]; IGF-1R/3T3 cells)
1 | – | – | – | – | – | – | CNc1cc2c(Nc3cccc(Br)c3)ncnc2cn1 [PD158780, reference compound] | blocks | – | – | – | – | –
2 | 29 | 26 | < 10 | 10 | 10 | – | ADGD [GFB-112] | – | −7.6% | 30.4% | 0.6% | – | –
3 | 8 | 33 | < 10 | < 10 | < 10 | – | GDDD [GFB-106] | – | – | – | – | very effective | –
4 | 1.9 | 4.6 | – | – | – | – | GDDG [GFB-126] | – | 63.9% and 47.0% | 71.2% and 79.2% | 51.7% and 51.0% | very effective | particularly effective
5 | 32 | > 50 | – | – | – | – | GDDG [GFB-127] | – | 38.4% and 27.2% | 61.6% and 74.4% | 36.8% and 31.8% | very effective | –
6 | 2.4 | 28 | < 10 | > 100 | > 100 | – | GDFD [GFB-105] | – | – | – | 1.3% | – | –
7 | 0.8 | 3.2 | – | – | – | 3 | GDGY [GFB-133] | – | – | – | – | very effective | –
8 | 2.8 | 30 | < 10 | 10 | 10 | – | GDSD [GFB-113] | – | −31.4% | 18.7% | −18.9% | – | –
